Here are results for 30 compounds from patent US9428477B2, “Trans-2-decenoic acid derivative and drug containing same” (NIPPON ZOKI PHARMACEUTICAL CO., LTD., priority 2012, dated 2016).

Data set [1] has as its system rats with paclitaxel-induced peripheral nerve disorder. Briefly: Rat peripheral nerve disorder induced by paclitaxel, von Frey test. The format is in vivo. Conditions: ip, test drug intraperitoneally, single dose, higher of values 1 and 5 hours after administration, mechanical stimulus of right hind limb, normal threshold 15, read-out: Recovery Rate of 50% Reaction Threshold Value. The protocol: The effects of the compounds of the present invention were evaluated for a peripheral nerve disorder which is a side effect induced by the administration of an anti-cancer agent paclitaxel, such as hyperesthesia including allodynia induced by mechanical stimuli, which is a severe pain induced by such tactile stimuli which usually cause no pains. The compound of the present invention was intraperitoneally administered to rats as a test drug to conduct a von Frey test.
Male SD rats of six weeks age (six rats per group) were used as experimental animals, and paclitaxel (2 mg/kg) was intraperitoneally administered every other day for four times in total to prepare rats with paclitaxel-induced peripheral nerve disorder. During the period of 18 to 25 days or during the period of 20 to 27 days after the initiation of paclitaxel administration, the test drug was intraperitoneally administered in a single dose of […], and the following von Frey test was conducted.
The rats of the above (1) were placed in a transparent acrylic cage with a wire-meshed floor and habituated for about three minutes, and the 50% reaction threshold values to the mechanical stimulus of right hind limb were measured before administration of the test drug and after 1 and 5 hours from the initiation of the administration.
The measurement was conducted using von Frey filaments (manufactured by North Coast Medical Inc.) in accordance with the methods of Chaplan, et al. (Journal of Neuroscience Methods, 53(1), 55-63, 1994) and Dixon, et al. (Annual Review of Pharmacology and Toxicology, 20, 441-462, 1980). […] The case where the rat escaped at the instance of removing the filament was also called positive. When the positive reaction was found, stimulus was applied similarly with a filament of one rank weaker, and in the absence of the reaction, stimulus was similarly applied with a filament of one rank stronger, and a point where the reaction changed from negative to positive or from positive to negative was called the first two reactions. Subsequently, stimuli were applied for continuously four times by the same up-down method. A 50% reaction threshold value to the mechanical stimulus was measured using the reaction to the six stimuli in total and then (mean value)±(standard error) for each group was calculated. Incidentally, when stimulus reached to a load of 15.0 g without positive reaction, or when positive reaction continued to a load of 0.4 g, 15.0 g or 0.25 g was adopted as each of 50% reaction threshold values. With regard to the higher 50% reaction threshold value between the 50% threshold values after 1 hour and 5 hours from administration of a test drug, a recovery rate (%) of the 50% reaction threshold value was calculated by the following expression in which 15 was taken as a normal threshold value.
Recovery rate (%) of 50% reaction threshold value=[(50% reaction threshold value after 1 hour or 5 hours from administration of test drug)−(50% reaction threshold value before administration of test drug)]/[(Normal threshold value)−(50% reaction threshold value before administration of test drug)]×100

The test system of data set [2] is MAP kinase (ERK 1/2). Briefly: Activation (phosphorylation) of MAP kinase in cultured cerebral cortex nerve cells, Western immunoblotting. The format is cell-based. The conditions noted are these: 0.5 h; fetal rat cerebral cortex nerve cells; compound 250 μg/ml in 0.1% DMSO; 30 minutes; relative to control = 1.00; read-out: Ratio of pMAPK to MAPK. On the procedure: With regard to the compounds of the present invention, the activation of MAP kinase (ERK 1/2) was measured in accordance with a Western immunoblotting in the following manner.
Nerve cells were dispersed from cerebral cortex of a fetal rat of 17 days age, and the nerve cells were cultured for one day in a Dulbecco's modified Eagle's medium (DMEM) containing 5% fetal bovine serum. The culture medium was exchanged with a serum-free medium (B27 supplemented Neurobasal; Invitrogen), and the nerve cells were cultured at the density of 20,000 to 40,000 cells/cm^2 in a polyornithine-coated culture dish.
After three days, the compound of the present invention was added, and the culture was continued for 30 minutes. Thereafter, the cells were recovered on ice using a solution containing a phosphatase inhibitor where Tris-HCl buffer was used as a base. The protein concentration of the resulting cell extract was quantified with a BCA Protein Assay Kit (Takara Bio Co., Ltd.), and a certain amount of the protein (3 μg for the measurement of MAP kinase and 5 μg for the measurement of phosphorylated MAP kinase) was subjected to polyacrylamide gel electrophoresis. The protein was transferred from the electrophoresed gel to a PVDF membrane, and Western immunoblotting was carried out using each of an anti-MAP kinase antibody (Cell Signaling Technology) and an anti-phosphorylated MAP kinase antibody (Cell Signaling Technology) of the primary antibody.
Subsequently, the reaction with an alkaline phosphatase-labeled anti-rabbit IgG antibody (Promega) of the secondary antibody was carried out, and the enzymatic activity was allowed to develop color, to measure MAP kinase (MAPK) and the phosphorylated MAP kinase (pMAPK).
Incidentally, each of the compounds of the present invention was dissolved in 0.1% DMSO to adjust its concentration to 250 μg/ml. As to the control, 0.1% DMSO was added.
The intensity of the concentration of the bands of eletrophoresed the gel was calculated and quantified using Image J (K. K. Bioarts). The numerical values for the MAPK when using the compounds of the present invention were each divided by the numerical value for the MAPK of the control, and the numerical values for the pMAPK when using the compounds of the present invention were divided by the numerical value for the pMAPK of the control, whereby a ratio of the MAPK when using each of the compounds of the present invention to the control, and a ratio of the pMAPK when using each of the compounds of the present invention to the control were obtained. Subsequently, the ratio of the pMAPK to the control obtained was divided by the ratio of the MAPK to the control to obtain a ratio of the pMAPK to the MAPK.
(Immunoblotting shows a protein as a band on a membrane.)

As to `CCCCCCC/C=C/C(=O)N1CCOCC1` [Compound 17, 4-((E)-2-Decenoyl)morpholine], the change in vivo at 0.3 mg/kg in data set [1] is 30.6%.

Compound `CCCCCCC/C=C/C(=O)N1CCN(c2ccc(C)cc2)CC1` [Compound 43, 1-((E)-2-Decenoyl)-4-(4-methylphenyl)piperazine] returned a melting point of 45 to 46 °C. The change in vivo at 0.3 mg/kg in data set [1] amounted to 31.3%.

For `CCCCCCC/C=C/C(=O)N1CCCCCC1` [Compound 32, 1-((E)-2-Decenoyl)azepane], in data set [1], the change in vivo at 0.3 mg/kg stood at 51.1%.

As for `CCCCCCC/C=C/C(=O)N1CCSC1` [Compound 4, 3-((E)-2-Decenoyl)thiazolidine], in data set [2], the fold induction at 250 µg/mL turned out to be 1.47. Moreover, the change in vivo at 0.3 mg/kg in data set [1] came out at 43.7%.

Turning to `CCCCCCC/C=C/C(=O)N1CCC(c2ccccc2)CC1` [Compound 16, 1-((E)-2-Decenoyl)-4-phenylpiperidine], the change in vivo at 0.3 mg/kg in data set [1] was found to be 38.6%.

The compound `CCCCCCC/C=C/C(=O)N1CCC(CC(=O)O)CC1` [Compound 35, 2-(1-((E)-2-Decenoyl)-4-piperidyl)acetic acid] came in with a melting point of 65 to 66 °C. In data set [1], the change in vivo at 0.3 mg/kg worked out at 41.2%.

Turning to `CCCCCCC/C=C/C(=O)N1CCC(CCN(C)C)CC1` [Compound 15, 1-((E)-2-Decenoyl)-4-(2-dimethylaminoethyl)piperidine], the change in vivo at 0.3 mg/kg in data set [1] is 34.2%.

On to `CCCCCCC/C=C/C(=O)N1CCN(c2ccc(O)cc2)CC1` [Compound 46, 1-((E)-2-Decenoyl)-4-(4-hydroxyphenyl)piperazine], for which the melting point lay in the range of 85 to 87 °C. Moreover, the change in vivo at 0.3 mg/kg in data set [1] was found to be 53.7%.

`CCCCCCC/C=C/C(=O)N1CCC(C)CC1` [Compound 6, 1-((E)-2-Decenoyl)-4-methylpiperidine]: the fold induction at 250 µg/mL in data set [2] worked out at 1.71. The change in vivo at 0.3 mg/kg in data set [1] came to 33.8%.

`CCCCCCC/C=C/C(=O)N1CCN(c2ccc(OC)cc2)CC1` [Compound 42, 1-((E)-2-Decenoyl)-4-(4-methoxyphenyl)piperazine] showed a melting point of 50 to 52 °C. Further, the change in vivo at 0.3 mg/kg in data set [1] is 45.8%.

Regarding `CCCCCCC/C=C/C(=O)N1CCN(c2ccccn2)CC1` [Compound 30, 1-((E)-2-Decenoyl)-4-(pyridin-2-yl)piperazine], the change in vivo at 0.3 mg/kg in data set [1] was found to be 22.6%.

Turning to `CCCCCCC/C=C/C(=O)N1CCC(CN(CC)CC)CC1` [Compound 14, 1-((E)-2-Decenoyl)-4-diethylaminomethylpiperidine], the fold induction at 250 µg/mL in data set [2] amounted to 2.08. Also, the change in vivo at 0.3 mg/kg in data set [1] is 26%.

Regarding `CCCCCCC/C=C/C(=O)N1CCN(c2ccc(Cl)cc2)CC1` [Compound 41, 1-((E)-2-Decenoyl)-4-(4-chlorophenyl)piperazine], in data set [1], the change in vivo at 0.3 mg/kg is 81.5%.

Take `CCCCCCC/C=C/C(=O)N1CCN(c2ccncc2)CC1` [Compound 29, 1-((E)-2-Decenoyl)-4-(pyridin-4-yl)piperazine]: the change in vivo at 0.3 mg/kg in data set [1] was determined as 42.8%.

Compound `CCCCCCC/C=C/C(=O)N1CCN(c2ccc(N(C)C)cc2)CC1` [Compound 28, 1-((E)-2-Decenoyl)-4-(4-dimethylaminophenyl)piperazine] returned a melting point of 73 to 74 °C. The change in vivo at 0.3 mg/kg in data set [1] is 20.3%.

For the compound `CCCCCCC/C=C/C(=O)N1CCN(CC(=O)O)CC1.Cl` [Compound 39, [4-[(E)-2-Decenoyl]piperazin-1-yl]acetic acid hydrochloride], the melting point was 195 °C (dec.). In data set [1], the change in vivo at 0.3 mg/kg was 16.6%.

For `CCCCCCC/C=C/C(=O)N1CCCN(C)CC1` [Compound 33, 1-((E)-2-Decenoyl)-4-methyl-[1,4]diazepane], the change in vivo at 0.3 mg/kg in data set [1] was 33.4%.

With `CCCCCCC/C=C/C(=O)N1CCCN(CCN(C)C)CC1` [Compound 34, 1-((E)-2-Decenoyl)-4-(2-dimethylaminoethyl)-[1,4]diazepane], in data set [1], the change in vivo at 0.3 mg/kg was 35.5%.

With `CCCCCCC/C=C/C(=O)N1CCN(c2ncccn2)CC1` [Compound 31, 1-((E)-2-Decenoyl)-4-(pyrimidin-2-yl)piperazine], the change in vivo at 0.3 mg/kg in data set [1] turned out to be 22.9%.

Regarding `CCCCCCC/C=C/C(=O)N1CCN(c2ccccc2Cl)CC1` [Compound 45, 1-((E)-2-Decenoyl)-4-(2-chlorophenyl)piperazine], the change in vivo at 0.3 mg/kg in data set [1] was found to be 33.3%.

For `CCCCCCC/C=C/C(=O)N1CCN(CCCC(=O)O)CC1.Cl` [Compound 40, 4-[4-[(E)-2-Decenoyl]piperazin-1-yl]butanoic acid hydrochloride], the melting point fell in the range of 203 to 205 °C. Further, in data set [1], the change in vivo at 0.3 mg/kg was 61.6%.

`CCCCCCC/C=C/C(=O)N1CCC(OC)CC1` [Compound 9, 1-((E)-2-Decenoyl)-4-methoxypiperidine]: the change in vivo at 0.3 mg/kg in data set [1] amounted to 35.6%.

With `CCCCCCC/C=C/C(=O)N1CCN(c2ccc(F)cc2)CC1` [Compound 44, 1-((E)-2-Decenoyl)-4-(4-fluorophenyl)piperazine], the change in vivo at 0.3 mg/kg in data set [1] worked out at 42.6%.

For `CCCCCCC/C=C/C(=O)N1CCC(CCC(=O)O)CC1` [Compound 36, 3-(1-((E)-2-Decenoyl)-4-piperidyl)propanoic acid], the change in vivo at 0.3 mg/kg in data set [1] is 42%.

Take `CCCCCCC/C=C/C(=O)N1CCN(c2ccc(OCC(=O)O)cc2)CC1` [Compound 47, 2-[4-[4-((E)-2-Decenoyl)piperazin-1-yl]phenoxy]acetic acid]: the melting point is 210 °C (dec.). In addition, the change in vivo at 0.3 mg/kg in data set [1] came to 54.5%.

`CCCCCCC/C=C/C(=O)N1CCN(Cc2ccc(C(=O)O)cc2)CC1` [Compound 48, 4-[[4-((E)-2-Decenoyl)piperazin-1-yl]methyl]benzoic acid] had a melting point of 114 to 116 °C. Moreover, the change in vivo at 0.3 mg/kg in data set [1] was 56.4%.

Take `CCCCCCC/C=C/C(=O)N1CCC(C#N)CC1` [Compound 37, 1-((E)-2-Decenoyl)-4-cyanopiperidine]: the change in vivo at 0.3 mg/kg in data set [1] came to 22.4%.

As to `CCCCCCC/C=C/C(=O)N1CCC(O)CC1` [Compound 8, 1-((E)-2-Decenoyl)-4-hydroxypiperidine], the change in vivo at 0.3 mg/kg in data set [1] came out at 49.7%.

On to `CCCCCCC/C=C/C(=O)N1CCN(C)CC1` [Compound 19, 1-((E)-2-Decenoyl)-4-methylpiperazine], for which the change in vivo at 0.3 mg/kg in data set [1] stood at 19.8%.

On to `CCCCCCC/C=C/C(=O)N1CCC(c2ccc(Cl)cc2)CC1` [Compound 38, 1-((E)-2-Decenoyl)-4-(4-chlorophenyl)piperidine], for which the change in vivo at 0.3 mg/kg in data set [1] is 55.5%.

One may read the melting point as the temperature, or range, at which the solid turns liquid.
